Several values for one entry are separate records, joined by “and”; a condition that tells them apart may be missing. Identical values can stand only once. Like-named read-outs stand apart in the source and are kept apart here.
Tests used:
[1] = tested on: S. mansoni; test: antischistosomal activity in mice (live worm burden, single oral dose); type: in vivo, S. mansoni (host: CD1 white female mice); settings: Schistosoma mansoni, read-out: % Reduction Live Worm Burden; for inhibition in vivo at 50 mg/kg: mice (footnote, 40 mg/kg); for inhibition in vivo at 156 mg/kg: mice (footnote, 125 mg/kg column)
Procedure: Tests were conducted to determine the antischistosomal activity in mice and monkeys. The results of the mice tests are reported in Tables 1 to 4 along with the chemical identifications of the compounds synthesized and tested.
The mice tests were conducted as follows:
A. Preinfection Procedures: Purina Laboratory chow (Ralston-Purina) and water were given ad libitum. All mice were housed in hanging stainless steel cages, without bedding, five per cage. They were kept in a ward with an ambient temperature of 75° F. and a relative humidity of 50-55%. Therapeutic treatment was given on Day 40 post-infection.
B. Experimental Procedures: CD1 white female mice were exposed by the tail immersion method for 30 minutes to 80 individually counted S. mansoni cercariae (WRAIR laboratory strain). The cercariae were obtained from pools of no less than 25 Biophalaria glabrata snails. Each experiment consisted of 118 mice divided into infected/water treated and infected/vehicle-treated controls, and infected/drug-treated groups (two dose levels) for six compounds. Groups of 12 mice each were treated with a compound synthesized and provided by the Warner-Lambert Company, Ann Arbor, Mich. at two dose levels. At the same time, five mice were sacrificed to establish worm burdens as infection controls. Three weeks after treatment, all remaining mice were sacrificed and perfused. Gross pathology (liver and intestines) was noted and graded (0 to +3). Worm burdens were determined and the sex of the worms recorded. Following perfusions the liver and intestines were removed and examined for the presence of […] or dead worms. […] Drugs were administered orally in Emulphor EL.
C. Drug Treatment: Treatment consisted of a single oral dose. Each drug was give initially at two dose levels, 40 mg/kg and 125 mg/kg, SID×1.
D. Criteria Used to Evaluate Therapeutic Effectiveness:
Evaluation of activity was determined by examination of the animals at 23 to 28 days after treatment. The schistosomes remaining alive after treatment were counted in the perfusates of the hepatic portal system and in press preparation of the livers. In the same preparations, the relative numbers of dead and/or encapsulated (i.e., worms may or may not be dead) parasites and the relative degree of pathology were ascertained. The efficacy of each treatment was that percentage of the control infection represented by the difference between numbers of parasites recovered from control (H2 O+vehicle) and treated animals. Thus, % efficacy is: [formula]

[2] = tested on: Salmonella Typhimurium; test: bacterial mutagenicity (Ames/Salmonella), five strains together; type: cell-based; settings: for bacterial mutagenicity: initial test
Procedure: (§1) The tests were carried out as follows:
(§2) Four phenylpiperazine derivatives were selected and specially purified samples were prepared for testing as bacterial mutagens. The tests were conducted with five strains (TA98, TA100, TA1535, TA1537, and TA1538) of Salmonella Typhimurium. The compounds were the base of cpd. A (Table 6a), cpd. 28 (Table 2), cpd. 49 (Table 3), and cpd. 8 (Table 1). Hycanthone was used as a positive control drug.

[3] = tested on: Salmonella Typhimurium TA98; test: bacterial mutagenicity, strain TA98; type: cell-based; parameters: key to Mutagenicity TA98: +: Positive Response; -: Negative Response; w+: Weak Positive Response
Procedure: as §1
as §2, with “drug. In the initial test, cpd. A base was nonmutagenic, confirming previous work using strains TA98 and TA100 with cpd. A. Cpd. 28 and cpd. […] In this initial test, cpd. […] Therefore, it was concluded that cpd. 49 is nonmutagenic in the Ames/Salmonella assay.” for “drug.”

[4] = tested on: Salmonella Typhimurium TA100; test: bacterial mutagenicity, strain TA100; type: cell-based; parameters: key: +: Positive Response; -: Negative Response; w+: Weak Positive Response
Procedure: as §1
as §2, with “drug. In the initial test, cpd. A base was nonmutagenic, confirming previous work using strains TA98 and TA100 with cpd. A. Cpd. 28 and cpd. […] In this initial test, cpd. […] Therefore, it was concluded that cpd. 49 is nonmutagenic in the Ames/Salmonella assay.” for “drug.”

[5] = tested on: Salmonella Typhimurium TA1535; test: bacterial mutagenicity, strain TA1535; type: cell-based; parameters: key: +: Positive Response; -: Negative Response; w+: Weak Positive Response; settings: without metabolic activation
Procedure: as §1
as §2, with “drug. In the initial test, cpd. A base was nonmutagenic, confirming previous work using strains TA98 and TA100 with cpd. A. Cpd. 28 and cpd. […] In this initial test, cpd. […] Therefore, it was concluded that cpd. 49 is nonmutagenic in the Ames/Salmonella assay.” for “drug.”

[6] = tested on: Salmonella Typhimurium TA1537; test: bacterial mutagenicity, strain TA1537; type: cell-based; parameters: key: +: Positive Response; -: Negative Response; w+: Weak Positive Response
Procedure: as §1
as §2, with “drug. In the initial test, cpd. A base was nonmutagenic, confirming previous work using strains TA98 and TA100 with cpd. A. Cpd. 28 and cpd. […] In this initial test, cpd. […] Therefore, it was concluded that cpd. 49 is nonmutagenic in the Ames/Salmonella assay.” for “drug.”

[7] = tested on: Salmonella Typhimurium TA1538; test: bacterial mutagenicity, strain TA1538; type: cell-based; parameters: key: +: Positive Response; -: Negative Response; w+: Weak Positive Response
Procedure: as §1
as §2, with “drug. In the initial test, cpd. A base was nonmutagenic, confirming previous work using strains TA98 and TA100 with cpd. A. Cpd. 28 and cpd. […] In this initial test, cpd. […] Therefore, it was concluded that cpd. 49 is nonmutagenic in the Ames/Salmonella assay.” for “drug.”

[8] = tested on: S. mansoni; test: antischistosomal activity in Cebus apella monkeys treated orally; type: in vivo, S. mansoni (host: Cebus apella monkeys); settings: four equal doses over two days, oral; for Total Normal Worms at Necropsy: two values given, not assigned to the doses
[9] = 125 mg/kg, single oral dose, mice
[10] = 40 mg/kg, single oral dose, mice

## O=C(CN1CCN(c2ccc(CO)c(Cl)c2)CC1)c1cc2ccccc2o1 [Cpd. 49, 2-[4-[3-Chloro-4-(hydroxymethyl)phenyl]-1-piperazinyl]-1-(2-benzofuranyl)-ethanone]
[1]; single oral dose, mice
  inhibition in vivo at 20 mg/kg: 33%
[1]; [9]
  inhibition in vivo at 125 mg/kg: 97%
[2]; Ames/Salmonella assay, overall conclusion
  bacterial mutagenicity, conclusion: nonmutagenic
[2]; other four strains (not TA98)
  bacterial mutagenicity: nonmutagenic
[3]; initial test, TA98 with microsomal activation
  bacterial mutagenicity: weakly mutagenic
[3]; second test, TA98, microsomal activation, additional concentrations 10-60 micrograms/ml
  bacterial mutagenicity: did not confirm this mutagenicity
[3]; with metabolic activation
  Mutagenicity TA98: +
[3]; without metabolic activation
  Mutagenicity TA98: -
[4]; with metabolic activation
  Mutagenicity TA100: -
[5]
  Mutagenicity TA1535: -
[6]; with metabolic activation
  Mutagenicity TA1537: -
[6]; without metabolic activation
  Mutagenicity TA1537: -
[7]; with metabolic activation
  Mutagenicity TA1538: -
[7]; without metabolic activation
  Mutagenicity TA1538: -

## O=C(CN1CCN(c2ccc(CO)c(Cl)c2)CC1)c1ccc(Cl)c(Cl)c1Cl [drawing 33]
[8]; 200 mg/kg
  % Reduction Live Worm Burden at Necropsy: 85% and 83%
  Fecal Egg Count: 0
[8]; 400 mg/kg
  % Reduction Live Worm Burden at Necropsy: 99% and 98%
  Fecal Egg Count: 0
[8]
  Total Normal Worms at Necropsy: 0

## O=C(CN1CCN(c2ccc(CO)c(Cl)c2)CC1)c1ccc(Cl)c(Cl)c1Cl [Cpd. 8, 2-[4-[3-Chloro-4-(hydroxymethyl)phenyl]-1-piperazinyl]-1-(2,3,4-trichlorophenyl)ethanone]
[1]; [10]
  inhibition in vivo at 40 mg/kg: 84%
[1]; single oral dose
  inhibition in vivo at 50 mg/kg: 91%
  inhibition in vivo at 156 mg/kg: 96%
[2]; five strains
  bacterial mutagenicity: mutagenic, but much less so than hycanthone
[3]; with metabolic activation
  Mutagenicity TA98: -
[3]; without metabolic activation
  Mutagenicity TA98: -
[4]; with metabolic activation
  Mutagenicity TA100: +
[5]
  Mutagenicity TA1535: -
[6]; with metabolic activation
  Mutagenicity TA1537: w+
[6]; without metabolic activation
  Mutagenicity TA1537: -
[7]; with metabolic activation
  Mutagenicity TA1538: -
[7]; without metabolic activation
  Mutagenicity TA1538: -

## O=C(CCN1CCN(c2ccc(CO)c(Cl)c2)CC1)c1ccc(Cl)cc1 [Cpd. 28, 3-[4-[3-Chloro-4-(hydroxymethyl)phenyl]-1-piperazinyl]-1-(4-chlorophenyl)-1-propanone]
[1]; single oral dose, mice
  inhibition in vivo at 20 mg/kg: 66%
[1]; [10]
  inhibition in vivo at 40 mg/kg: 88%
[1]; single oral dose
  inhibition in vivo at 50 mg/kg: 98%
  inhibition in vivo at 156 mg/kg: 99%
[2]; five strains
  bacterial mutagenicity: mutagenic, but much less so than hycanthone
[3]; with metabolic activation
  Mutagenicity TA98: -
[3]; without metabolic activation
  Mutagenicity TA98: -
[4]; with metabolic activation
  Mutagenicity TA100: +
[5]
  Mutagenicity TA1535: -
[6]; with metabolic activation
  Mutagenicity TA1537: -
[6]; without metabolic activation
  Mutagenicity TA1537: w+
[7]; with metabolic activation
  Mutagenicity TA1538: +
[7]; without metabolic activation
  Mutagenicity TA1538: w+

## Cc1csc(C(=O)CN2CCN(c3ccc(CO)c(Cl)c3)CC2)c1 [compound 52]
[1]; [10]
  inhibition in vivo at 40 mg/kg: 25%
[1]; [9]
  inhibition in vivo at 125 mg/kg: 69%

## Nc1cc(C(=O)CCN2CCN(c3ccc(CO)c(Cl)c3)CC2)ccc1Cl [Cpd. 37]
[1]; single oral dose, mice
  inhibition in vivo at 20 mg/kg: 81%
[1]; [10]
  inhibition in vivo at 40 mg/kg: 83%
[1]; [9]
  inhibition in vivo at 125 mg/kg: 95%

## CCN(CC)CCNc1ccc(CO)c2sc3ccccc3c(=O)c12 [Hycanthone, reference compound]
[3]; with metabolic activation
  Mutagenicity TA98: +
[3]; without metabolic activation
  Mutagenicity TA98: +
[4]; with metabolic activation
  Mutagenicity TA100: +
[4]; without metabolic activation
  Mutagenicity TA100: +
[5]
  Mutagenicity TA1535: -
[6]; with metabolic activation
  Mutagenicity TA1537: +
[6]; without metabolic activation
  Mutagenicity TA1537: +
[7]; with metabolic activation
  Mutagenicity TA1538: +
[7]; without metabolic activation
  Mutagenicity TA1538: +

## O=C(CN1CCN(c2ccc(CO)c(Cl)c2)CC1)c1ccc([N+](=O)[O-])cc1 [Cpd. 5]
[1]; [10]
  inhibition in vivo at 40 mg/kg: 74%
[1]; [9]
  inhibition in vivo at 125 mg/kg: 98%

## N#Cc1ccc(C(=O)CN2CCN(c3ccc(CO)c(Cl)c3)CC2)cc1 [compound 23]
[1]; [10]
  inhibition in vivo at 40 mg/kg: 40%
[1]; [9]
  inhibition in vivo at 125 mg/kg: 90%

## O=C1c2ccccc2CCC1N1CCN(c2ccc(CO)c(Cl)c2)CC1 (stereo not shown) [compound 22]
[1]
  inhibition in vivo at 40 mg/kg: 73%
  inhibition in vivo at 125 mg/kg: 87%

## O=C(CCCN1CCN(c2ccc(CO)c(Cl)c2)CC1)c1ccc(Cl)cc1 [Cpd. 59, 1-(4-Chlorophenyl)-4-[4-[3-chloro-4-(hydroxymethyl)phenyl]-1-piperazinyl]-1-butanone]
[1]; [10]
  inhibition in vivo at 40 mg/kg: 30%
[1]; [9]
  inhibition in vivo at 125 mg/kg: 68%

## O=C(CN1CCN(c2ccc(CO)c(Cl)c2)CC1)c1ccc2ccccc2c1 [compound 19]
[1]; [10]
  inhibition in vivo at 40 mg/kg: -37%
[1]; [9]
  inhibition in vivo at 125 mg/kg: 17%

## O=C(CCN1CCN(c2ccc(CO)c(Cl)c2)CC1)c1ccc(Cl)cc1 [drawing 32]
[8]; 100 mg/kg
  % Reduction Live Worm Burden at Necropsy: 93% and 87%
  Total Live Worms at Necropsy: 15 and 27
[8]; 200 mg/kg
  % Reduction Live Worm Burden at Necropsy: 100% and 96%
[8]; 400 mg/kg
  % Reduction Live Worm Burden at Necropsy: 97% and 95%
  Total Live Worms at Necropsy: 6 and 11
[8]
  Total Normal Worms at Necropsy: 0
[8]; two values printed for six animals (400, 200, 100 mg/kg), not assigned
  Fecal Egg Count: 0

## CSc1ccc(C(=O)CCN2CCN(c3ccc(CO)c(Cl)c3)CC2)cc1 [Cpd. 31]
[1]; [10]
  inhibition in vivo at 40 mg/kg: 73%
[1]; [9]
  inhibition in vivo at 125 mg/kg: 93%

## O=C(CCN1CCN(c2ccc(CO)c(Cl)c2)CC1)c1ccc(C2CCCCC2)cc1 [compound 33]
[1]; [10]
  inhibition in vivo at 40 mg/kg: 79%
[1]; [9]
  inhibition in vivo at 125 mg/kg: 93%

## O=C(CCN1CCN(c2ccc(CO)c(Cl)c2)CC1)c1ccc(Cl)cc1Cl [compound 39]
[1]; single oral dose, mice
  inhibition in vivo at 20 mg/kg: 70%
[1]; [10]
  inhibition in vivo at 40 mg/kg: 86%
[1]; [9]
  inhibition in vivo at 125 mg/kg: 94%
